Test results as given in the supplement of paper PMC4862054.

Each molecule was assayed on Hs578T (assay: normalised response (% of control), CellTiter-Glo; higher = more viable cells (100 = DMSO, 0 = benzethonium chloride kill control)). Settings: incubation time: 72 h.
Outline: (§1)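 Normalised signals at single concentrations make up the values. They come from breast cancer cell lines seeded (20 µl suspension) into 384-well plates with compound at 5 concentrations in 10-fold steps over a compound-specific 10,000-fold range, incubated 72 h, and read for CellTox Green fluorescence then CellTiter-Glo luminescence. Each plate was normalised to 0.1 % DMSO (100) and a positive kill control (0).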

Compared with `COc1cc2nccc(Oc3ccc(NC(=O)Nc4cc(C)on4)c(Cl)c3)c2cc1OC` [Tivozanib] (1 nM), `CNC(=O)c1cc(Oc2ccc(NC(=O)Nc3cc(C(C)(C)C)nn3-c3ccc4ncccc4c3)c(F)c2)ccn1` [Rebastinib] (0.1 nM) is higher in normalised response: 91% for the first, 103% for the second.

Going from `COc1cc2c(NC3CCN(C(C)C)CC3)nc(C3CCCCC3)nc2cc1OCCCN1CCCC1` [UNC0638] (1 nM) to `C=CC(=O)Nc1cc2c(Nc3ccc(F)c(Cl)c3)ncnc2cc1OCCCN1CCOCC1` [Canertinib] (10 nM), the normalised response rises from 99.7% to 103%.

`N#Cc1ccc(C(c2ccc(C#N)cc2)n2cncn2)cc1` [Letrozole] (1 nM) and `Cc1ccc(-c2cc(C(F)(F)F)nn2-c2ccc(S(N)(=O)=O)cc2)cc1` [Celecoxib] (1 nM) are the same in normalised response: 105% for the first, 105% for the second.

First: CC[C@H](Nc1ncnc2[nH]cnc12)c1nc2cccc(F)c2c(=O)n1-c1ccccc1 [GS-1101] (1 nM)
Second: C=CC(=O)N1CCC[C@@H](n2nc(-c3ccc(Oc4ccccc4)cc3)c3c(N)ncnc32)C1 [Ibrutinib] (1 nM)
The normalised response of the first is lower: 96.8% for the first, 99.3% for the second.

First: O=C(O)C(=O)O.[NH-][C@@H]1CCCC[C@H]1[NH-].[Pt+2] [Oxaliplatin] (10 nM)
Second: CC1=C(/C=C/C(C)=C/C=C/C(C)=C/C(=O)O)C(C)(C)CCC1 [Tretinoin] (10 nM)
The normalised response of the first is higher: 101% for the first, 97.7% for the second.

Going from `CC(=O)Nc1cccc(-n2c(=O)n(C3CC3)c(=O)c3c(Nc4ccc(I)cc4F)n(C)c(=O)c(C)c32)c1` [Trametinib] (0.25 nM) to `CCCS(=O)(=O)Nc1ccc(F)c(C(=O)c2c[nH]c3ncc(-c4ccc(Cl)cc4)cc23)c1F` [Vemurafenib] (10 nM), the normalised response rises from 94.7% to 95.8%.

Compared with `CCCCC(=O)OCC(=O)[C@]1(O)Cc2c(O)c3c(c(O)c2[C@@H](O[C@H]2C[C@H](NC(=O)C(F)(F)F)[C@H](O)[C@H](C)O2)C1)C(=O)c1c(OC)cccc1C3=O` [Valrubicin] (0.5 nM), `COc1cc2nccc(Oc3ccc(NC(=O)Nc4cc(C)on4)c(Cl)c3)c2cc1OC` [Tivozanib] (10 nM) is lower in normalised response: 96% for the first, 94.3% for the second.

Compared with `CCN(CC)CCCC(C)Nc1c2ccc(Cl)cc2nc2ccc(OC)cc12` (stereo not given) [Mepacrine] (5 nM), `C=CC(=O)Nc1cc2c(Nc3ccc(F)c(Cl)c3)ncnc2cc1OCCCN1CCOCC1` [Canertinib] (1 nM) is lower in normalised response: 100% for the first, 98.6% for the second.

Compared with `CCCS(=O)(=O)Nc1ccc(F)c(C(=O)c2c[nH]c3ncc(-c4ccc(Cl)cc4)cc23)c1F` [Vemurafenib] (1 nM), `Nc1ccccc1NC(=O)c1ccc(CNC(=O)OCc2cccnc2)cc1` [Entinostat] (1 nM) is higher in normalised response: 95.3% for the first, 98.8% for the second.

`Oc1ncc(N(CCCl)CCCl)c(O)n1` [Uracil mustard] (1 nM) was tested, and the normalised response was 99.7%.

Each molecule was assayed on BT-549 in the same assay as above. Settings: incubation time: 72 h.
Outline: as §1

`C=CC(=O)N1CCC[C@@H](n2nc(-c3ccc(Oc4ccccc4)cc3)c3c(N)ncnc32)C1` [Ibrutinib] (0.1 nM) and `CC[C@H](Nc1ncnc2[nH]cnc12)c1nc2cccc(F)c2c(=O)n1-c1ccccc1` [GS-1101] (1 nM) are the same in normalised response: 102% for the first, 102% for the second.

Compared with `Nc1nc2[nH]cc(CCc3ccc(C(=O)N[C@@H](CCC(=O)O)C(=O)O)cc3)c2c(=O)[nH]1` [Pemetrexed] (1 nM), `Nc1ccccc1NC(=O)c1ccc(CNC(=O)OCc2cccnc2)cc1` [Entinostat] (1 nM) is lower in normalised response: 105% for the first, 103% for the second.

Compared with `COc1cc2nccc(Oc3ccc(NC(=O)Nc4cc(C)on4)c(Cl)c3)c2cc1OC` [Tivozanib] (1 nM), `CNC(=O)c1cc(Oc2ccc(NC(=O)Nc3cc(C(C)(C)C)nn3-c3ccc4ncccc4c3)c(F)c2)ccn1` [Rebastinib] (0.1 nM) is lower in normalised response: 102% for the first, 95.8% for the second.

First: COc1cc2c(NC3CCN(C(C)C)CC3)nc(C3CCCCC3)nc2cc1OCCCN1CCCC1 [UNC0638] (1 nM)
Second: C=CC(=O)Nc1cc2c(Nc3ccc(F)c(Cl)c3)ncnc2cc1OCCCN1CCOCC1 [Canertinib] (10 nM)
The normalised response of the first is higher: 103% for the first, 95.6% for the second.

Compared with `N#Cc1ccc(C(c2ccc(C#N)cc2)n2cncn2)cc1` [Letrozole] (1 nM), `Cc1ccc(-c2cc(C(F)(F)F)nn2-c2ccc(S(N)(=O)=O)cc2)cc1` [Celecoxib] (1 nM) is higher in normalised response: 103% for the first, 104% for the second.

Compared with `O=C(O)C(=O)O.[NH-][C@@H]1CCCC[C@H]1[NH-].[Pt+2]` [Oxaliplatin] (10 nM), `CC1=C(/C=C/C(C)=C/C=C/C(C)=C/C(=O)O)C(C)(C)CCC1` [Tretinoin] (10 nM) is higher in normalised response: 96.8% for the first, 96.9% for the second.

Compared with `CC(=O)Nc1cccc(-n2c(=O)n(C3CC3)c(=O)c3c(Nc4ccc(I)cc4F)n(C)c(=O)c(C)c32)c1` [Trametinib] (0.25 nM), `CCCS(=O)(=O)Nc1ccc(F)c(C(=O)c2c[nH]c3ncc(-c4ccc(Cl)cc4)cc23)c1F` [Vemurafenib] (10 nM) is lower in normalised response: 92.7% for the first, 91.2% for the second.

First: C=CC(=O)N1CCC[C@@H](n2nc(-c3ccc(Oc4ccccc4)cc3)c3c(N)ncnc32)C1 [Ibrutinib] (1 nM)
Second: C=CC(=O)Nc1cc2c(Nc3ccc(F)c(Cl)c3)ncnc2cc1OCCCN1CCOCC1 [Canertinib] (1 nM)
The normalised response of the first is lower: 97.8% for the first, 104% for the second.

First: CCCCC(=O)OCC(=O)[C@]1(O)Cc2c(O)c3c(c(O)c2[C@@H](O[C@H]2C[C@H](NC(=O)C(F)(F)F)[C@H](O)[C@H](C)O2)C1)C(=O)c1c(OC)cccc1C3=O [Valrubicin] (0.5 nM)
Second: COc1cc2nccc(Oc3ccc(NC(=O)Nc4cc(C)on4)c(Cl)c3)c2cc1OC [Tivozanib] (10 nM)
The normalised response of the first is lower: 97.1% for the first, 100% for the second.

Compared with `CCN(CC)CCCC(C)Nc1c2ccc(Cl)cc2nc2ccc(OC)cc12` (stereo not given) [Mepacrine] (5 nM), `CCCS(=O)(=O)Nc1ccc(F)c(C(=O)c2c[nH]c3ncc(-c4ccc(Cl)cc4)cc23)c1F` [Vemurafenib] (1 nM) is lower in normalised response: 104% for the first, 95% for the second.

Molecule `Oc1ncc(N(CCCl)CCCl)c(O)n1` [Uracil mustard] (1 nM) has a normalised response of 89.4%.

The molecules below were run on MDA-MB-468 in the same assay as above. Settings: incubation time: 72 h.
Outline: as §1

Compared with `C=CC(=O)N1CCC[C@@H](n2nc(-c3ccc(Oc4ccccc4)cc3)c3c(N)ncnc32)C1` [Ibrutinib] (0.1 nM), `CC[C@H](Nc1ncnc2[nH]cnc12)c1nc2cccc(F)c2c(=O)n1-c1ccccc1` [GS-1101] (1 nM) is lower in normalised response: 103% for the first, 93.4% for the second.

First: Nc1nc2[nH]cc(CCc3ccc(C(=O)N[C@@H](CCC(=O)O)C(=O)O)cc3)c2c(=O)[nH]1 [Pemetrexed] (1 nM)
Second: CC(=O)Nc1cccc(-n2c(=O)n(C3CC3)c(=O)c3c(Nc4ccc(I)cc4F)n(C)c(=O)c(C)c32)c1 [Trametinib] (0.25 nM)
The normalised response of the first is higher: 99% for the first, 98.8% for the second.

Compared with `COc1cc2nccc(Oc3ccc(NC(=O)Nc4cc(C)on4)c(Cl)c3)c2cc1OC` [Tivozanib] (1 nM), `CNC(=O)c1cc(Oc2ccc(NC(=O)Nc3cc(C(C)(C)C)nn3-c3ccc4ncccc4c3)c(F)c2)ccn1` [Rebastinib] (0.1 nM) is lower in normalised response: 97.3% for the first, 97.1% for the second.

Compared with `COc1cc2c(NC3CCN(C(C)C)CC3)nc(C3CCCCC3)nc2cc1OCCCN1CCCC1` [UNC0638] (1 nM), `C=CC(=O)Nc1cc2c(Nc3ccc(F)c(Cl)c3)ncnc2cc1OCCCN1CCOCC1` [Canertinib] (10 nM) is higher in normalised response: 90.5% for the first, 96.3% for the second.

Compared with `N#Cc1ccc(C(c2ccc(C#N)cc2)n2cncn2)cc1` [Letrozole] (1 nM), `O=C(O)C(=O)O.[NH-][C@@H]1CCCC[C@H]1[NH-].[Pt+2]` [Oxaliplatin] (10 nM) is lower in normalised response: 104% for the first, 97.2% for the second.
